Laboratory results published in patent US5258286A, “Method of terminating isocitrate dehydrogenase reaction” (Oriental Yeast Co., Ltd., priority 1985, dated 1993).

System: iCDH (isocitrate dehydrogenase)
Conditions: EDTA concentration of 5 mM; 0.4 mM MgCl2, 1.6 mM isocitric acid, 1 mM NADP+, 0.1M triethanolamine hydrochloride pH 8.5, 25° C.; FIG. 1
Description: A varied amount of EDTA was added to 3 ml of a 0.1M triethanolamine hydrochloride solution (pH 8.5) containing the above-listed ingredients to provide an EDTA concentration of 0 to 10 mM. Each of the resulting mixtures was kept at a temperature of 25° C., and admixed with 20 μl of iCDH of about 3 u/ml, followed by measurement of the iCDH activity based on an increase in absorption at 340 nm by spectrophotometry.

SMILES: O=C(O)CN(CCN(CC(=O)O)CC(=O)O)CC(=O)O [EDTA]
- iCDH activity: completely loses its activity
